Like-named read-outs stand apart in the source and are kept apart here.
Test system: AsPC-1 cells
Test: phospho-ERK HTRF assay in AsPC-1 cells, 4 h treatment
Assay type: cell-based
Conditions: Homo sapiens, ASPC1
[1] = AsPC-1, 4h, Table 1b, read-out: PERK IC50 (AsPC-1, 4h)
[2] = AsPC-1, 4H, Table 1a class column, read-out: pERK IC50 activity range (*)
[3] = AsPC-1, 4H, Table 1a, read-out: PERK IC50 (AsPC-1, 4H)

| Compound | IC50 [1] [nM] | IC50 [2] [nM] | IC50 [3] [nM] |
| --- | --- | --- | --- |
| CN(C)C(=O)c1nn2c(c1Cl)CN(c1nc(OC[C@@]34CCCN3C/C(=C\F)C4)nc3c1CO[C@H](c1c(F)c(N)cc(Cl)c1C(F)(F)F)C3)CCC2 [247a, 5-((S)-7-(3-amino-5-chloro-2-fluoro-6-(trifluoromethyl)phenyl)-2-(((S,Z)-2-(fluoromethylene)tetrahydro-1H-pyrrolizin-7a(5H)-yl)methoxy)-7,8-dihydro-5H-pyrano[4,3-d]pyrimidin-4-yl)-3-chloro-N,N-dimethyl-5,6,7,8-tetrahydro-4H-pyrazolo[1,5-a][1,4]diazepine-2-carboxamide] | < 10 |  |  |
| CN(C)C(=O)c1nn2c(c1Cl)CN(c1nc(OC[C@@]34CCCN3C/C(=C\F)C4)nc3c1CO[C@@H](c1c(F)c(N)cc(Cl)c1C(F)(F)F)C3)CCC2 [247b, 5-((R)-7-(3-amino-5-chloro-2-fluoro-6-(trifluoromethyl)phenyl)-2-(((S,Z)-2-(fluoromethylene)tetrahydro-1H-pyrrolizin-7a(5H)-yl)methoxy)-7,8-dihydro-5H-pyrano[4,3-d]pyrimidin-4-yl)-3-chloro-N,N-dimethyl-5,6,7,8-tetrahydro-4H-pyrazolo[1,5-a][1,4]diazepine-2-carboxamide] |  | > 500 | 615 |
| CN(C)C(=O)c1nn2c(c1Cl)CN(c1nc(OC[C@@]34CCCN3CC(=C(F)F)C4)nc3c1CO[C@H](c1c(F)c(N)cc(Cl)c1C(F)(F)F)C3)CCC2 [248a, 5-((S)-7-(3-amino-5-chloro-2-fluoro-6-(trifluoromethyl)phenyl)-2-(((S)-2-(difluoromethylene)tetrahydro-1H-pyrrolizin-7a(5H)-yl)methoxy)-7,8-dihydro-5H-pyrano[4,3-d]pyrimidin-4-yl)-3-chloro-N,N-dimethyl-5,6,7,8-tetrahydro-4H-pyrazolo[1,5-a][1,4]diazepine-2-carboxamide] | < 10 |  |  |
| CN(C)C(=O)c1nn2c(c1Cl)CN(c1nc(OC[C@@]34CCCN3CC(=C(F)F)C4)nc3c1CO[C@@H](c1c(F)c(N)cc(Cl)c1C(F)(F)F)C3)CCC2 [248b, 5-((R)-7-(3-amino-5-chloro-2-fluoro-6-(trifluoromethyl)phenyl)-2-(((S)-2-(difluoromethylene)tetrahydro-1H-pyrrolizin-7a(5H)-yl)methoxy)-7,8-dihydro-5H-pyrano[4,3-d]pyrimidin-4-yl)-3-chloro-N,N-dimethyl-5,6,7,8-tetrahydro-4H-pyrazolo[1,5-a][1,4]diazepine-2-carboxamide] |  | > 500 | > 2500 |
| [2H]C([2H])([2H])N(C(=O)c1nn2c(c1Cl)CN(c1nc(OC[C@@]34CCCN3C[C@H](F)C4)nc3c1CO[C@@H](c1c(F)c(N)cc(Cl)c1C(F)(F)F)C3)CCC2)C([2H])([2H])[2H] [250b] |  | 10 to 30 |  |
| CN1CCN(c2nc(OC[C@@]34CCCN3C[C@H](F)C4)nc3c2COC(c2c(C(F)(F)F)ccc(N)c2F)C3)CCC1=O (stereo partly drawn) [compound 201] |  | > 500 | > 10000 |
| CN(C)C(=O)c1nc2c(s1)CCCN(c1nc(OC[C@@]34CCCN3C[C@H](F)C4)nc3c1CO[C@H](c1c(C(F)(F)F)ccc(N)c1F)C3)C2 [compound 202] |  | > 500 | > 10000 |
| Nc1ccc(C(F)(F)F)c(C2Cc3nc(OC[C@@]45CCCN4C[C@H](F)C5)nc(N4CCNCC(=O)C4)c3CO2)c1F (stereo partly drawn) [compound 203] |  | > 500 | > 10000 |
| Nc1ccc(C(F)(F)F)c([C@@H]2Cc3nc(OC[C@@]45CCCN4C[C@H](F)C5)nc(N4CCCS(=O)(=O)CC4)c3CO2)c1F [compound 204] |  | > 500 | > 10000 |
| Nc1ccc(C(F)(F)F)c([C@@H]2Cc3nc(OC[C@@]45CCCN4C[C@H](F)C5)nc(N4CCNC(=O)CC4)c3CO2)c1F [compound 205] |  | > 500 | > 10000 |
| Nc1ccc(C(F)(F)F)c(C2Cc3nc(OC[C@@]45CCCN4C[C@H](F)C5)nc(N4CCCC(=O)CC4)c3CO2)c1F (stereo partly drawn) [compound 206] |  | > 500 | > 10000 |
| Nc1ccc(C(F)(F)F)c(C2Cc3nc(OC[C@@]45CCCN4C[C@H](F)C5)nc(N4CCNC5CS(=O)(=O)C[C@H]54)c3CO2)c1F (stereo partly drawn) [compound 207] |  | > 500 | > 10000 |
